Values after ≈ are worked out from the molar mass of the structure shown.
Experiments:
[1] = tested on: Mycobacterium tuberculosis; assay: Antimycobacterial activity against Mycobacterium tuberculosis H37Rv ATCC 27294 after 5 days by microplate alamar blue assay; assay type: functional; conditions: H37Rv ATCC 27294, 120 h
HEK293 = assay: Cytotoxicity against human HEK293 cells after 36 hrs by MTT assay; assay type: cell-based; conditions: HEK293, 36 h
Pseudomonas aeruginosa = assay: Antibacterial activity against Pseudomonas aeruginosa by agar dilution method; assay type: functional
Serratia marcescens = assay: Antibacterial activity against Serratia marcescens by agar dilution method; assay type: functional
Escherichia coli = assay: Antibacterial activity against Escherichia coli by agar dilution method; assay type: functional
Klebsiella pneumoniae = assay: Antibacterial activity against Klebsiella pneumoniae by agar dilution method; assay type: functional
Proteus mirabilis = assay: Antibacterial activity against Proteus mirabilis by agar dilution method; assay type: functional
Staphylococcus aureus = assay: Antibacterial activity against Staphylococcus aureus by agar dilution method; assay type: functional
[2] = tested on: Acinetobacter calcoaceticus; assay: Antibacterial activity against Acinetobacter calcoaceticus by agar dilution method; assay type: functional
Proteus vulgaris = assay: Antibacterial activity against Proteus vulgaris by agar dilution method; assay type: functional

O=C(c1ccc2c(c1)OCCO2)C1CCN(Cc2coc(-c3ccccc3F)n2)CC1
MIC90 [1]: 8 µg/mL (≈ 18.9 µM)
IC50 (HEK293): > 150 µg/mL

O=C(c1ccc(F)c(F)c1)C1CCN(Cc2coc(-c3ccc(F)cc3)n2)CC1
MIC90 [1]: 2 µg/mL (≈ 5 µM)
IC50 (HEK293): > 150 µg/mL

O=C(c1ccc2c(c1)OCCO2)C1CCN(Cc2cc(-c3ccc(F)cc3)on2)CC1
MIC90 [1]: > 128 µg/mL

O=C(c1ccc2c(c1)OCCO2)C1CCN(Cc2coc(-c3cccnc3)n2)CC1
MIC90 [1]: 32 µg/mL (≈ 78.9 µM)
IC50 (HEK293): > 150 µg/mL

O=C(c1ccc2c(c1)OCCO2)C1CCN(Cc2coc(-c3ccoc3)n2)CC1
MIC90 [1]: 32 µg/mL (≈ 81.1 µM)
IC50 (HEK293): > 150 µg/mL

O=C(c1ccc2c(c1)OCCO2)C1CCN(Cc2coc(-c3ccc(Br)cc3)n2)CC1
MIC90 [1]: 8 µg/mL (≈ 16.6 µM)
IC50 (HEK293): > 150 µg/mL

COc1ccc(C(=O)C2CCN(Cc3coc(-c4ccc(F)cc4)n3)CC2)cc1
MIC90 [1]: 4 µg/mL (≈ 10.1 µM)
IC50 (HEK293): > 150 µg/mL

COc1ccc(C(=O)C2CCN(Cc3coc(-c4ccc(F)cc4)n3)CC2)cc1OC
MIC90 [1]: 8 µg/mL (≈ 18.8 µM)
IC50 (HEK293): > 150 µg/mL

COc1ccc(-c2nc(CN3CCC(C(=O)c4ccc5c(c4)OCCO5)CC3)co2)cc1
MIC90 [1]: 8 µg/mL (≈ 18.4 µM)
IC50 (HEK293): > 150 µg/mL

Cc1ccc(-c2nc(CN3CCC(C(=O)c4ccc5c(c4)OCCO5)CC3)co2)cc1
MIC90 [1]: 64 µg/mL (≈ 153 µM)
IC50 (HEK293): > 150 µg/mL

CC[C@@H](CO)NCCN[C@@H](CC)CO [ETHAMBUTOL]
MIC90 [1]: < 0.5 µg/mL

O=C(c1ccc2c(c1)OCCO2)C1CCN(Cc2coc(-c3ccccc3)n2)CC1
MIC90 [1]: 4 µg/mL (≈ 9.89 µM)
IC50 (HEK293): > 150 µg/mL

CO[C@H]1/C=C/O[C@@]2(C)Oc3c(C)c(O)c4c(O)c(c(/C=N/N5CCN(C)CC5)c(O)c4c3C2=O)NC(=O)/C(C)=C\C=C\[C@H](C)[C@H](O)[C@@H](C)[C@@H](O)[C@@H](C)[C@H](OC(C)=O)[C@@H]1C [RIFAMPIN]
MIC90 [1]: < 0.5 µg/mL

O=C(c1ccc2c(c1)OCCO2)C1CCN(Cc2coc(-c3ccc(Cl)cc3)n2)CC1
MIC80 (Pseudomonas aeruginosa): > 128 µg/mL
MIC80 (Serratia marcescens): > 128 µg/mL
MIC80 (Escherichia coli): > 128 µg/mL
MIC90 [1]: 2 µg/mL (≈ 4.56 µM)
MIC80 (Klebsiella pneumoniae): > 128 µg/mL
MIC80 (Proteus mirabilis): > 128 µg/mL
MIC80 (Staphylococcus aureus): > 128 µg/mL
MIC80 [2]: > 128 µg/mL
MIC80 (Proteus vulgaris): > 128 µg/mL
IC50 (HEK293): > 150 µg/mL

O=C(c1ccc2c(c1)OCCO2)C1CCN(Cc2coc(-c3ccc(C(F)(F)F)cc3)n2)CC1
MIC90 [1]: 32 µg/mL (≈ 67.7 µM)
IC50 (HEK293): > 150 µg/mL

O=C(c1ccc2c(c1)OCCO2)C1CCN(Cc2csc(-c3ccc(Cl)cc3)n2)CC1
MIC90 [1]: > 128 µg/mL

CN[C@@H]1[C@H](O[C@H]2[C@H](O[C@H]3[C@H](O)[C@@H](O)[C@H](N=C(N)N)[C@@H](O)[C@@H]3N=C(N)N)O[C@@H](C)[C@]2(O)C=O)O[C@@H](CO)[C@H](O)[C@H]1O [STREPTOMYCIN]
MIC90 [1]: < 0.5 µg/mL

O=C(c1ccc2c(c1)OCCO2)C1CCN(Cc2coc(-c3ccc(F)c(F)c3)n2)CC1
MIC90 [1]: 8 µg/mL (≈ 18.2 µM)
IC50 (HEK293): > 150 µg/mL

CC(C)(C)c1ccc(-c2nc(CN3CCC(C(=O)c4ccc5c(c4)OCCO5)CC3)co2)cc1
MIC80 (Pseudomonas aeruginosa): > 128 µg/mL
MIC80 (Serratia marcescens): > 128 µg/mL
MIC80 (Escherichia coli): > 128 µg/mL
MIC90 [1]: 8 µg/mL (≈ 17.4 µM)
MIC80 (Klebsiella pneumoniae): > 128 µg/mL
MIC80 (Proteus mirabilis): > 128 µg/mL
MIC80 (Staphylococcus aureus): > 128 µg/mL
MIC80 [2]: > 128 µg/mL
MIC80 (Proteus vulgaris): > 128 µg/mL
IC50 (HEK293): > 150 µg/mL

O=C(c1ccc2c(c1)CCCC2)C1CCN(Cc2coc(-c3ccc(F)cc3)n2)CC1
MIC80 (Pseudomonas aeruginosa): > 128 µg/mL
MIC80 (Serratia marcescens): > 128 µg/mL
MIC80 (Escherichia coli): > 128 µg/mL
MIC90 [1]: 1 µg/mL (≈ 2.39 µM)
MIC80 (Klebsiella pneumoniae): > 128 µg/mL
MIC80 (Proteus mirabilis): > 128 µg/mL
MIC80 (Staphylococcus aureus): > 128 µg/mL
MIC80 [2]: > 128 µg/mL
MIC80 (Proteus vulgaris): > 128 µg/mL
IC50 (HEK293): > 150 µg/mL

O=C(c1ccccc1)C1CCN(Cc2coc(-c3ccc(F)cc3)n2)CC1
MIC90 [1]: 2 µg/mL (≈ 5.49 µM)
IC50 (HEK293): > 150 µg/mL

CC(C)(C)c1ccc(-c2nc(CN3CCC(C(=O)c4ccc5c(c4)OCCO5)CC3)cs2)cc1
MIC90 [1]: > 128 µg/mL

O=C(c1ccc2c(c1)OCCO2)C1CCN(Cc2coc(-c3ccc(F)cc3)n2)CC1
MIC90 [1]: 8 µg/mL (≈ 18.9 µM)
IC50 (HEK293): > 150 µg/mL

Cc1ccc(C(=O)C2CCN(Cc3coc(-c4ccc(F)cc4)n3)CC2)cc1
MIC90 [1]: 4 µg/mL (≈ 10.6 µM)
IC50 (HEK293): > 150 µg/mL

CC(C)(C)c1ccc(-c2nc(CN3CCC(C(=O)c4ccc5c(c4)CCCC5)CC3)co2)cc1
MIC90 [1]: 8 µg/mL (≈ 17.5 µM)
IC50 (HEK293): > 150 µg/mL

NNC(=O)c1ccncc1 [ISONIAZID]
MIC90 [1]: < 0.5 µg/mL

O=C(c1ccc2c(c1)OCCO2)C1CCN(Cc2coc(-c3cccc(F)c3)n2)CC1
MIC90 [1]: 4 µg/mL (≈ 9.47 µM)
IC50 (HEK293): > 150 µg/mL

Cc1ccc(C(=O)C2CCN(Cc3coc(-c4ccc(F)cc4)n3)CC2)cc1C
MIC90 [1]: 8 µg/mL (≈ 20.4 µM)
IC50 (HEK293): > 150 µg/mL

O=C(c1ccc2c(c1)OCCO2)C1CCN(Cc2coc(-c3ccco3)n2)CC1
MIC90 [1]: 16 µg/mL (≈ 40.6 µM)
IC50 (HEK293): > 150 µg/mL

From ChEMBL document CHEMBL3627615, “Discovery of the disubstituted oxazole analogues as a novel class anti-tuberculotic agents against MDR- and XDR-MTB” (Bioorg Med Chem Lett, 2015)
